# According to patent publication US10072252B2 (priority 2013, dated 2018):
# Where “and” joins values, the source holds several entries; their conditions need not be identical. Equal entries are not always repeated. Where two headings read alike, the source gives them in different places.
# T1: Sulfolobus solfataricus SsoPox variant αsA1 (C258L/I261F/W263A), SEQ ID NO: 21 (Saccharolobus solfataricus, UniProt Q97VT7, C258L/I261F/W263A)
# T1 construct: made in house; host or cells: E. coli BL21(DE3)-pGro7/GroEL
# T1 sequence (Q97VT7 1-314 C258L/I261F/W263A): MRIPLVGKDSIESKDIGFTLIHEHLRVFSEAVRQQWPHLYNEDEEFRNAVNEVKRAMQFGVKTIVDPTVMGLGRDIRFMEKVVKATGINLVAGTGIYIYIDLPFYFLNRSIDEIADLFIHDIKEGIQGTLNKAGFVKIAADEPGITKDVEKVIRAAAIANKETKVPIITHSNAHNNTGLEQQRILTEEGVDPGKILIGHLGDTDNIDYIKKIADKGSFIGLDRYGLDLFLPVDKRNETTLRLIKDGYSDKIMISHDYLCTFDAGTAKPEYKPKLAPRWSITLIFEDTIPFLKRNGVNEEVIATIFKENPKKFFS
# Legend:
# [1] = biological target: T2, Sulfolobus solfataricus SsoPox variant W263L, SEQ ID NO: 11 (Saccharolobus solfataricus, UniProt Q97VT7, W263L); assay type: biochemical
# T2 construct: made in house; host or cells: E. coli BL21(DE3)-pGro7/GroEL
# [2] = biological target: T3, Sulfolobus solfataricus SsoPox, wild type (wt), SEQ ID NO: 3 (Saccharolobus solfataricus, UniProt Q97VT7); assay type: biochemical; set-up: made in house; host or cells: E. coli BL21(DE3)-pGro7/GroEL
# [3] = biological target: T4, Sulfolobus solfataricus SsoPox variant W263V, SEQ ID NO: 17 (Saccharolobus solfataricus, UniProt Q97VT7, W263V); assay type: biochemical; set-up: made in house; host or cells: E. coli BL21(DE3)-pGro7/GroEL
# [4] = biological target: T5, Sulfolobus solfataricus SsoPox variant W263F (of SEQ ID NO: 3) (Saccharolobus solfataricus, UniProt Q97VT7, W263F); assay type: biochemical; set-up: made in house; host or cells: E. coli BL21(DE3)-pGro7/GroEL
# [5] = biological target: T6, Sulfolobus solfataricus SsoPox variant W263I, SEQ ID NO: 15 (Saccharolobus solfataricus, UniProt Q97VT7, W263I); assay type: biochemical; set-up: made in house; host or cells: E. coli BL21(DE3)-pGro7/GroEL
# [6] = biological target: T1, Sulfolobus solfataricus SsoPox variant αsA1 (C258L/I261F/W263A), SEQ ID NO: 21; assay type: biochemical; conditions: pH 8
# [7] = biological target: T3, Sulfolobus solfataricus SsoPox, wild type (wt), SEQ ID NO: 3; set-up: made in house; host or cells: E. coli BL21(DE3)-pGro7/GroEL; conditions: cited from earlier work
# [8] = biological target: T7, Sulfolobus solfataricus SsoPox variant W263T, SEQ ID NO: 19 (Saccharolobus solfataricus, UniProt Q97VT7, W263T); assay type: biochemical; set-up: made in house; host or cells: E. coli BL21(DE3)-pGro7/GroEL
# [9] = biological target: T8, Sulfolobus solfataricus SsoPox variant W263M, SEQ ID NO: 9 (Saccharolobus solfataricus, UniProt Q97VT7, W263M); assay type: biochemical
# T8 construct: made in house; host or cells: E. coli BL21(DE3)-pGro7/GroEL
# [10] = biological target: T9, Sulfolobus solfataricus SsoPox variant W263A, SEQ ID NO: 13 (Saccharolobus solfataricus, UniProt Q97VT7, W263A); assay type: biochemical; set-up: made in house; host or cells: E. coli BL21(DE3)-pGro7/GroEL
# [11] = biological target: T8, Sulfolobus solfataricus SsoPox variant W263M, SEQ ID NO: 9; assay type: biochemical; remark: listed apart in the source
# [12] = biological target: T4, Sulfolobus solfataricus SsoPox variant W263V, SEQ ID NO: 17
# [13] = biological target: T5, Sulfolobus solfataricus SsoPox variant W263F (of SEQ ID NO: 3)
# [14] = biological target: T2, Sulfolobus solfataricus SsoPox variant W263L, SEQ ID NO: 11; assay type: biochemical; remark: listed apart in the source
# [15] = biological target: T3, Sulfolobus solfataricus SsoPox, wild type (wt), SEQ ID NO: 3
# [16] = biological target: T9, Sulfolobus solfataricus SsoPox variant W263A, SEQ ID NO: 13
# [17] = biological target: T6, Sulfolobus solfataricus SsoPox variant W263I, SEQ ID NO: 15
# [18] = biological target: T7, Sulfolobus solfataricus SsoPox variant W263T, SEQ ID NO: 19
# [19] = test system: lasB transcription; assay type: cell-based, P. aeruginosa
# [20] = test system: 3-oxo-C12 AHL; assay type: cell-based, Pseudomonas aeruginosa
# [21] = test system: P. aeruginosa PAO1; conditions: in vivo
# [22] = test system: P. aeruginosa PAO1 biofilm formation; assay type: cell-based
# [23] = rat, in vivo
# [24] = assay type: physicochemical; conditions: pH 8
# [25] = test system: sea urchins larvae (Paracentrotus lividus); conditions: in vivo
molecule,measurement,setting,value
"CCOP(=O)(OCC)Oc1ccc([N+](=O)[O-])cc1 [Paraoxon, paraoxon]",Enhancement/wt,[1],4.6
same,catalytic efficiency improvement induced by SDS,[1],19.8 times
same,kcat,[1],3.17 ± 0.18 s⁻¹ and 3.13 ± 0.25 s⁻¹
same,kcat/KM,[1]; pH 8,2.37(±0.33) × 10^3 M^−1s^−1
same,Enhancement/wt,[2],1
same,catalytic efficiency improvement induced by SDS,[2],12.4 times
same,Enhancement/wt,[3],1.7
same,kcat/KM,[3]; pH 8,8.83(±0.3) × 10^2 M^−1s^−1
same,Enhancement/wt,[4],23.3
same,Km,[4]; pH 8,700 ± 146 µM
same,kcat,[4]; pH 8,8.47 ± 0.53 s⁻¹
same,kcat/KM,[4]; pH 8,1.21(±0.33)×10^4 M^−1s^−1
same,Enhancement/wt,[5],2.3
same,kcat/KM,[5]; pH 8,1.21(±0.59) × 10^3 M^−1s^−1
same,Catalytic activity,[6],3.37(±0.94) · 10^4 M^−1s^−1
same,kcat/KM,[7],6.41(±1.51)×10^3 M^−1s^−1
same,Catalytic activity,[7]; pH 8,5.19(±1.31) · 10^2 M^−1s^−1
same,Km,[7]; pH 8,24300 ± 3720 µM
same,kcat,[7]; pH 8,12.59 ± 1.26 s⁻¹
same,kcat/KM,[7]; pH 8,5.19(±1.31) × 10^2 M^−1s^−1
same,Enhancement/wt,[8],2.0
same,kcat/KM,[8]; pH 8,1.06(±0.03) × 10^3 M^−1s^−1
same,Enhancement/wt,[9],14.1
same,Km,[9]; pH 8,931 ± 163 µM
same,kcat,[9]; pH 8,6.82 ± 0.57 s⁻¹
same,kcat/KM,[9]; pH 8,7.33(±1.9) × 10^3 M^−1s^−1
same,Enhancement/wt,[10],6.8
same,Km,[10]; pH 8,1490 ± 351 µM
same,kcat,[10]; pH 8,5.29 ± 0.69 s⁻¹
same,kcat/KM,[10]; pH 8,3.55(±1.30)×10^3 M^−1s^−1
CCCCCCCCCC(=O)CC(=O)N[C@H]1CCOC1=O [3-oxo-C12 AHL],Enhancement/wt,[11],0
same,ability to hydrolyse,[11],lost the ability to hydrolyse
same,Enhancement/wt,[12],65.8 and 54.5 ± 20.4
same,kcat,[12]; pH 8.3,3.00 ± 0.07 s⁻¹
same,kcat/KM,[12]; pH 8.3,1.21(±0.26) × 10^5 M^−1s^−1
same,Enhancement/wt,[13],1.5 and 1.3 ± 0.5
same,kcat,[13]; pH 8.3,0.41 ± 0.02 s⁻¹
same,kcat/KM,[13]; pH 8.3,2.81(±0.65) × 10^3 M^−1s^−1
same,Enhancement/wt,[14],0
same,ability to hydrolyse,[14],lost the ability to hydrolyse
same,Enhancement/wt,[15],1
same,kcat/KM,[15],2.96(±0.99)×10^3 M^−1s^−1
same,Enhancement/wt,[16],0.42
same,ability to hydrolyse,[16],lost the ability to hydrolyse
same,Enhancement/wt,[17],54.7 and 45.5 ± 18.8
same,kcat,[17]; pH 8.3,1.80 ± 0.05 s⁻¹
same,Enhancement/wt,[18],25.6 and 21.2 ± 7.2
same,kcat,[18]; pH 8.3,6.44 ± 0.22 s⁻¹
same,kcat/KM,[18]; pH 8.3,4.70(±0.67) × 10^4 M^−1s^−1
"SsoPox W263I: SEQ ID NO: 3 with substitution of tryptophan W in position 263 by isoleucine I (protein, listed as Sulfolobus solfataricus) MRIPLVGKDSIESKDIGFTLIHEHLRVFSEAVRQQWPHLYNEDEEFRNAVNEVKRAMQFGVKTIVDPTVMGLGRDIRFMEKVVKATGINLVAGTGIYIYIDLPFYFLNRSIDEIADLFIHDIKEGIQGTLNKAGFVKIAADEPGITKDVEKVIRAAAIANKETKVPIITHSNAHNNTGLEQQRILTEEGVDPGKILIGHLGDTDNIDYIKKIADKGSFIGLDRYGLDLFLPVDKRNETTLRLIKDGYSDKIMISHDYCCTIDIGTAKPEYKPKLAPRWSITLIFEDTIPFLKRNGVNEEVIATIFKENPKKFFS",half inhibition concentration ([C1/2]) of lasB transcription,[19],around 0.5 μg/mL
same,relative lactonase activity in screening (3-oxo-C12 AHL hydrolysis),[20],selected for a potential lactonase activity improvement
same,mean time to death,[21],37 ± 13 h
same,mortality rate,[21],20%
same,[C1/2] of inhibition of biofilm formation,[22],approximately 170 μg/mL
same,acute inflammatory reactions in the respiratory parenchyma,[23],no observable acute inflammatory reactions
same,histological analysis of lungs,[23],normal lung parenchyma
same,macroscopic aspect of lungs removed after treatment,[23],no macroscopic signs of injury
same,spontaneous mortality,[23],no spontaneous mortality was observed
same,tolerance of tracheal instillation,[23],well tolerated
same,melting temperature,[24],87.8±1.2 °C
"SsoPox: SsoPox enzyme tested for ecotoxicity; variant not specified (protein, UniProt Q97VT7 1-314, looked up) Aryldialkylphosphatase: MRIPLVGKDSIESKDIGFTLIHEHLRVFSEAVRQQWPHLYNEDEEFRNAVNEVKRAMQFGVKTIVDPTVMGLGRDIRFMEKVVKATGINLVAGTGIYIYIDLPFYFLNRSIDEIADLFIHDIKEGIQGTLNKAGFVKIAADEPGITKDVEKVIRAAAIANKETKVPIITHSNAHNNTGLEQQRILTEEGVDPGKILIGHLGDTDNIDYIKKIADKGSFIGLDRYGLDLFLPVDKRNETTLRLIKDGYSDKIMISHDYCCTIDWGTAKPEYKPKLAPRWSITLIFEDTIPFLKRNGVNEEVIATIFKENPKKFFS",effects on viability and development,[25],no effects have been observed
